Test [1] concerns the target T1, PfOAT (Plasmodium falciparum, UniProt Q6LFH8).
T1 construct: gene OAT
T1 sequence (Q6LFH8 1-414): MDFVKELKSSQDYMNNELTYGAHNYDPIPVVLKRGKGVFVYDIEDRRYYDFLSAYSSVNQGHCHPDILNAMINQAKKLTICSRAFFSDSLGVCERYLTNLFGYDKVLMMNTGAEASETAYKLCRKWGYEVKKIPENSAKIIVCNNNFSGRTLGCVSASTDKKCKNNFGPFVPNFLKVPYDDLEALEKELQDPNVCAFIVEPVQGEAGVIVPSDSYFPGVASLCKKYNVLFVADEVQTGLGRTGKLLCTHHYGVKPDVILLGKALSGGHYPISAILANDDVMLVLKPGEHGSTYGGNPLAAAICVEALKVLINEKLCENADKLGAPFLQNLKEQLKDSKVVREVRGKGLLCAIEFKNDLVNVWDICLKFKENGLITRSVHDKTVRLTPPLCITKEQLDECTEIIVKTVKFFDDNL
The test can be described thus: photo-affinity labelling, click TAMRA, in-gel fluorescence. Type of test: binding. To be noted: covalent photo-crosslink on UV 365 nm; recombinant protein; competed by excess CQ.

Test [2] concerns the target T2, PfLDH (Plasmodium falciparum, UniProt Q76NM3).
T2 construct: gene PF3D7_1324900
The test is described as above. Type of test: binding. The note with it: covalent photo-crosslink on UV 365 nm; recombinant protein; competed by excess CQ.

The target of test [3] is T3, PfTPI (Plasmodium falciparum, UniProt Q7KQM0).
T3 construct: gene TPI
The description is as above. Type of test: binding. The note with it: covalent photo-crosslink on UV 365 nm; recombinant protein; competed by excess CQ.

Test [4] concerns the target T4, PfPGK (Plasmodium falciparum, UniProt P27362).
T4 construct: gene PGK
T4 sequence (P27362 1-416): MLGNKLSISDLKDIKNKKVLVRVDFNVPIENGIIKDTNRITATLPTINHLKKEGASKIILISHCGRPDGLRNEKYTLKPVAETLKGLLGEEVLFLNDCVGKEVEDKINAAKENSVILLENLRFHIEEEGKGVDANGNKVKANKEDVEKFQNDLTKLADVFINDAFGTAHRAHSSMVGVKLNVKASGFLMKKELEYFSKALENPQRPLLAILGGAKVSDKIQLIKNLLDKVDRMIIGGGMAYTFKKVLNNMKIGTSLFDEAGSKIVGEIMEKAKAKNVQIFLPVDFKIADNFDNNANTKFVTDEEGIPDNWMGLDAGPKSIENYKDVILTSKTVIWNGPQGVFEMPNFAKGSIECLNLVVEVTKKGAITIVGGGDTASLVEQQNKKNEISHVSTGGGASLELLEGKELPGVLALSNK
The test is described as above. Type of test: binding. The note with it: covalent photo-crosslink on UV 365 nm; recombinant protein; competed by excess CQ.

The target in test [5] is T5, PfPyrK (Plasmodium falciparum, UniProt C6KTA4).
T5 construct: gene PF3D7_0626800
T5 sequence (C6KTA4 1-511): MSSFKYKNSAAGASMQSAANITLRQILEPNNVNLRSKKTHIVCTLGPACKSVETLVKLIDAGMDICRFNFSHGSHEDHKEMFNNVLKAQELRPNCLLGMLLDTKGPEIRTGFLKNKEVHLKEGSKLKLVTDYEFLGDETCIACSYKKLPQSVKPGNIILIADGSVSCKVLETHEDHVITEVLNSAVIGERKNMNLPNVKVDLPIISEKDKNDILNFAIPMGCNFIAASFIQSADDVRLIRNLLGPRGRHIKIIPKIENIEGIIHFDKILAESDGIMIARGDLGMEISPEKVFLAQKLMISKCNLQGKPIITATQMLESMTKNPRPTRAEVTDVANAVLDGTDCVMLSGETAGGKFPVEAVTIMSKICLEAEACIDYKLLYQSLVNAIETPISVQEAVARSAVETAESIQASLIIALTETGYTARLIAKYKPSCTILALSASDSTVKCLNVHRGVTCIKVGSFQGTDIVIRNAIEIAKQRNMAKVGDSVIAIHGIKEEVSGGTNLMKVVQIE
Described as above. It is filed as binding. The note with it: covalent photo-crosslink on UV 365 nm; recombinant protein; competed by excess CQ.

In test [6] the target is T3, PfTPI. Briefly: SPR (BIAcore). It is filed as binding. The note with it: read-out: KCQ-PfTPI. (In general: In SPR one partner is held on a chip, and binding of the other changes the refractive index at the surface.)
The target of test [7] is T4, PfPGK. Briefly: SPR (BIAcore). To be noted: read-out: KCQ-PfPGK. It is filed as binding.
The target of test [8] is T2, PfLDH. Briefly: enzyme activity inhibition, dose-response. It is filed as biochemical. To be noted: recombinant protein.
Test [9] addresses T3, PfTPI. The test can be described thus: enzyme activity inhibition, dose-response. Type of test: biochemical. To be noted: recombinant protein.
Test [10] deals with T1, PfOAT. The test can be described thus: enzyme activity inhibition, dose-response. It is filed as biochemical. To be noted: recombinant protein.
The target in a further test is T6, plasmepsin II (Plasmodium falciparum, UniProt Q8I6V3).
T6 construct: gene PMII; native protein in soluble parasite lysate
Briefly: ITDR MS-CETSA thermal shift. Type of test: biochemical. The note with it: parasite lysate, CQ 0-300 µmol/L; heated at 37, 52 or 61 °C.

In test [11] the target is T4, PfPGK. The test can be described thus: enzyme activity inhibition, dose-response. Type of test: biochemical. The note with it: recombinant protein.
Another test has as its target T7, plasmepsin IV (Plasmodium falciparum, UniProt Q8IM16).
T7 construct: gene PMIV; native protein in soluble parasite lysate
Briefly: ITDR MS-CETSA thermal shift. It is filed as biochemical. The note with it: parasite lysate, CQ 0-300 µmol/L; heated at 37, 52 or 61 °C.

Test [12] has as its target T5, PfPyrK. The test can be described thus: SPR (BIAcore). Type of test: binding. To be noted: read-out: KCQ-PfPyrK.
The target in the next test is T8, falcilysin (Plasmodium falciparum, UniProt Q76NL8).
T8 construct: gene FLN; native protein in soluble parasite lysate
T8 sequence (Q76NL8 1-1193): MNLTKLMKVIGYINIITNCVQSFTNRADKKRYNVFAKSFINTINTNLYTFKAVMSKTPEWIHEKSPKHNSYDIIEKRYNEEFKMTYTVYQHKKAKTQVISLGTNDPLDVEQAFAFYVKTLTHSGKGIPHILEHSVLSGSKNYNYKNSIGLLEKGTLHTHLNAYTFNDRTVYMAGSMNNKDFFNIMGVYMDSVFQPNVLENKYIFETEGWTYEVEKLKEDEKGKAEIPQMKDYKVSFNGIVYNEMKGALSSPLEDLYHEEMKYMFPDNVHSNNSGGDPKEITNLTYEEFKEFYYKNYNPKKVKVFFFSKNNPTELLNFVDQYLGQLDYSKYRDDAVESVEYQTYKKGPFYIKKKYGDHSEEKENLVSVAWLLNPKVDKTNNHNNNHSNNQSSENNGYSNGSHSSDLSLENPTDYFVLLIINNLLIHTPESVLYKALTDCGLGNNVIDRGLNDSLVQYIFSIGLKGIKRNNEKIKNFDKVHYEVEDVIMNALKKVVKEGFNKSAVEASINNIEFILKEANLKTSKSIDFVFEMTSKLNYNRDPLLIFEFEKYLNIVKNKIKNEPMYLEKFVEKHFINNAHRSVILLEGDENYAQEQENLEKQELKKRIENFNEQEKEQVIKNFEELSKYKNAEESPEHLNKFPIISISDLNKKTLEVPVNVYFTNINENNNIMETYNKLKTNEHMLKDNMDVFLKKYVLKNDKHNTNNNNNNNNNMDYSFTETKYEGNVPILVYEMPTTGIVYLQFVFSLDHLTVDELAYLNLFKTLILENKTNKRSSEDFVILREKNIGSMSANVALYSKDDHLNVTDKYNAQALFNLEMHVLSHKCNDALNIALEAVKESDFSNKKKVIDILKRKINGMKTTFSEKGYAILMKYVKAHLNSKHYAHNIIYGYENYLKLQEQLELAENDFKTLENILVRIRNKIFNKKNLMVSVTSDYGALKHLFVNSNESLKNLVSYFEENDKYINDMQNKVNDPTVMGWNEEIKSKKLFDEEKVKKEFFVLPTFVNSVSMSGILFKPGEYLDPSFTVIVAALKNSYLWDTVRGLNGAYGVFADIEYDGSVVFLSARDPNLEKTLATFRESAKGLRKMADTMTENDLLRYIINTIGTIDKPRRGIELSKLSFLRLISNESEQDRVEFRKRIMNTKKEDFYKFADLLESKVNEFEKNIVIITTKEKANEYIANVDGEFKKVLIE
The test can be described thus: ITDR MS-CETSA thermal shift. It is filed as biochemical. The note with it: parasite lysate, CQ 0-300 µmol/L; heated at 37, 52 or 61 °C.

Test [13] has as its target T5, PfPyrK. The test can be described thus: enzyme activity inhibition, dose-response. Type of test: biochemical. To be noted: recombinant protein.
Test [14] addresses T1, PfOAT. The test can be described thus: SPR (BIAcore). It is filed as binding. The note with it: read-out: KCQ-PfOAT.
The target of test [15] is T2, PfLDH. Briefly: SPR (BIAcore). Type of test: binding. The note with it: read-out: KCQ-PfLDH.

Structures are written as SMILES.

T3 sequence (Q7KQM0 whole entry): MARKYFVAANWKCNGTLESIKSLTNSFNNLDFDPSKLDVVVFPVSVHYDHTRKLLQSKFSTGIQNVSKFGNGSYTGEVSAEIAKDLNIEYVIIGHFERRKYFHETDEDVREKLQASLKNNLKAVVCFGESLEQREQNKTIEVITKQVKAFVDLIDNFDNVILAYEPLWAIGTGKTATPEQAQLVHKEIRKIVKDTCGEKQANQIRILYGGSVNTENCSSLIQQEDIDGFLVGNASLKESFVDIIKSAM
T2 sequence (Q76NM3 1-316): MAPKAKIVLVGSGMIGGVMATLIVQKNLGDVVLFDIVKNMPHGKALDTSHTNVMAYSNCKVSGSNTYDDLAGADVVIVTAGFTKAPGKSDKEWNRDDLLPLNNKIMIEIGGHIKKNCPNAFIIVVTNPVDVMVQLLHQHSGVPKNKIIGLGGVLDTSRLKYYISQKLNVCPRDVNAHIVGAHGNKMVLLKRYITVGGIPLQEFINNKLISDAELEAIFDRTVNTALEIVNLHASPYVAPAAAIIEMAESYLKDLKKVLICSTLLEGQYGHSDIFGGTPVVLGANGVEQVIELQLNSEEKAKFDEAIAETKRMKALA
T7 sequence (Q8IM16 122-449): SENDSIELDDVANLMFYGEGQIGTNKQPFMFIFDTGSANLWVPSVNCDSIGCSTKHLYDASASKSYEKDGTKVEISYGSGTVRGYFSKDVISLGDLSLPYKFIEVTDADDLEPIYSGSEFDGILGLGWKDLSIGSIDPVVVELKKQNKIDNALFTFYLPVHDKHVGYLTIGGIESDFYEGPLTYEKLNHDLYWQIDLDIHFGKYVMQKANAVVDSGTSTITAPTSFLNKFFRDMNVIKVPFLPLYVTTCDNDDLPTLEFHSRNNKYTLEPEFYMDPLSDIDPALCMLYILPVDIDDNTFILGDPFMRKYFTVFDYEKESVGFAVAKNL
T6 sequence (Q8I6V3 125-453): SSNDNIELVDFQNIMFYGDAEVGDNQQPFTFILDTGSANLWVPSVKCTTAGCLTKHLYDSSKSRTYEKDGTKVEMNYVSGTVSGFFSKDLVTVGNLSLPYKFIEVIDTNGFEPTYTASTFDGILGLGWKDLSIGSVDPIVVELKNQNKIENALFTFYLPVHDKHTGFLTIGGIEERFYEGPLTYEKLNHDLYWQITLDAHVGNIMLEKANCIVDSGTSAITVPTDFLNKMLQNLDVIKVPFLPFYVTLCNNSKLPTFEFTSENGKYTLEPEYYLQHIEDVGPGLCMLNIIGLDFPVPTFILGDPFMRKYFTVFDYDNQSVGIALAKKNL

`C#CCOCCC1(CCOCc2cn(CCCCC(=O)N(CC)CCCC(C)Nc3ccnc4cc(Cl)ccc34)nn2)N=N1` (stereo not drawn) [CQP]: the “photo-affinity labelling, click TAMRA, in-gel fluorescence” value was “CQP specifically binds to recombinant PfLDH, PfOAT, PfPyrK, PfPGK, and PfTPI proteins” at PfOAT [1]; “CQP specifically binds to recombinant PfLDH, PfOAT, PfPyrK, PfPGK, and PfTPI proteins” on PfLDH [2]; “CQP specifically binds to recombinant PfLDH, PfOAT, PfPyrK, PfPGK, and PfTPI proteins” on PfTPI [3]; “CQP specifically binds to recombinant PfLDH, PfOAT, PfPyrK, PfPGK, and PfTPI proteins” on PfPGK [4]; “CQP specifically binds to recombinant PfLDH, PfOAT, PfPyrK, PfPGK, and PfTPI proteins” on PfPyrK [5].
Regarding `CCN(CC)CCCC(C)Nc1ccnc2cc(Cl)ccc12` (stereo not drawn) [CQ], the Kd at PfTPI [6] was 1180 nM; at PfPGK [7] it was 1950 nM; at PfPyrK [12] it was 850 nM; on PfOAT [14] it was 1910 nM; on PfLDH [15], 320 nM. The “inhibition of enzymatic activity” value is “CQ inhibits the enzymatic activities of the recombinant PfLDH (a)” at PfLDH [8]; “PfPGK (d) and PfTPI (e) proteins in vitro in a dose-dependent manner” at PfTPI [9]; “CQ inhibits the enzymatic activities of the recombinant PfLDH (a), PfOAT (b)” at PfOAT [10]; “PfPGK (d) and PfTPI (e) proteins in vitro in a dose-dependent manner” at PfPGK [11]; “CQ inhibits the enzymatic activities of the recombinant PfLDH (a), PfOAT (b), PfPyrK (c)” on PfPyrK [13]. The thermal shift entry at plasmepsin II is “plasmepsin II and plasmepsin IV also showed significant thermal shift”; at plasmepsin IV, “plasmepsin II and plasmepsin IV also showed significant thermal shift”; at falcilysin, “falcilysin as well as other hemoglobin proteolytic enzymes”.

(Values after publication PMC9195458, “Identification of antimalarial targets of chloroquine by a combined deconvolution strategy of ABPP and MS-CETSA” (Military Medical Research, 2022).)
